{
  "source": "patent US20240024403A1",
  "about": "“Compositions and Methods for Managing Weight” (Unigen, Inc., priority 2012, published 2024)",
  "key": {"human CB1 receptor [1]": {"target": "T1, human CB1 receptor (Homo sapiens (Human), UniProt P21554)", "T1 sequence (P21554 whole entry)": "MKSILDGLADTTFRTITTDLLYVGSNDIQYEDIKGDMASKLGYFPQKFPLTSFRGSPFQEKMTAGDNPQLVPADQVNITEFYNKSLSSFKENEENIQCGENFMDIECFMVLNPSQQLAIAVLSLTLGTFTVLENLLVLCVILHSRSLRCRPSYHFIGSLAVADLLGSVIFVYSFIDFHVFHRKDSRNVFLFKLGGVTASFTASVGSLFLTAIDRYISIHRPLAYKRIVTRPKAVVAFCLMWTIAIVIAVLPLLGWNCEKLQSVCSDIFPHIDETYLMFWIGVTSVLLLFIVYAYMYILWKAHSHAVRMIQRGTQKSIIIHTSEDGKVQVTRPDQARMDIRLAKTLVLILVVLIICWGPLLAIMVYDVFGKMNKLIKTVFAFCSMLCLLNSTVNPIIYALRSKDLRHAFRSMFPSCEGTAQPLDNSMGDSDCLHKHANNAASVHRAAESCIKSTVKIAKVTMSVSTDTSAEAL", "test": "CB1 receptor binding assay ([3H] SR141716A)", "settings": "for inhibition at 20 µg/mL: read-out: % Inhibition CB1-Binding; for CB1 selectivity over CB2: from CB1 and CB2 IC50", "method": "Cannabinoid receptor binding assays were used as a primary screening method to identify CB1 antagonist compounds. […] Briefly, human cannabinoid receptor protein bound to Chem-1 membrane was used in modified HEPES (pH 7.4) buffer. A 10 microgram (μg) aliquot of Chem-1 membrane, radioactively labeled [^3H] […] After incubation, the membranes were filtered and washed four times and then the filters were counted to determine amount of [^3H]"}, "[2]": {"target": "human cannabinoid CB2 receptor protein (Homo sapiens (Human), UniProt P34972)", "sequence (P34972 whole entry)": "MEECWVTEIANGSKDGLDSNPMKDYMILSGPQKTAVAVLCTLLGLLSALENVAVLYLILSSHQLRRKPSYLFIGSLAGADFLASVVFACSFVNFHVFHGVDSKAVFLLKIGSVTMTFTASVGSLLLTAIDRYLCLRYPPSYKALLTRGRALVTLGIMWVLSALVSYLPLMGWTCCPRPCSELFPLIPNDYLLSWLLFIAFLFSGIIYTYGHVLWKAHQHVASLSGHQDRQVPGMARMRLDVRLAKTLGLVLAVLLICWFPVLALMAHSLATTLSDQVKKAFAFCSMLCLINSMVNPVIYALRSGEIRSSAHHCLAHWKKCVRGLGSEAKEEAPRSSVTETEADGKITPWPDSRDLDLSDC", "test": "CB2 receptor-ligand binding assay ([3H] WIN-55,212-2)", "method": "Briefly, human cannabinoid CB2 receptor protein expressed in CHO-K1 cells were used in modified HEPES buffer (pH 7.0). A 30 μg aliquot of CB2-membrane was mixed with tritium labeled nonspecific CB1 agonist [3H] WIN-55,212-2 (2.4 nM) and test samples of Kuwanon G and Albanin G compounds, or just the nonspecific ligand R (+)-WIN-55,212-2 (10 μM) (positive control) were incubated in incubation buffer (20 mM HEPES (pH 7.0), 0.5 mg/ml BSA) for 90 minutes at 37° C. After incubation, the membranes were filtered and washed; the filters were then counted to determine the amount of radiolabeled [^3H] WIN-55,212-2 that was specifically bound to the CB2-membrane."}, "Rice α-glucosidase": {"tested_on": "Rice α-glucosidase", "test": "Rice α-Glucosidase inhibition assay", "assay_type": "biochemical", "settings": "100 μg/ml", "method": "Inhibition of rice α-glucosidase activity by each of the purified Kuwanon G and Albanin G compounds was measured as follows. […] The reaction was initiated with addition of 2 mM p-nitrophenyl a-D-glucopyanoside, incubated for another 90 minute at 70° C., and then terminated by adding of 1 M sodium carbonate. The end-product p-nitrophenol was measured by spectrophotometer."}, "human CB1 receptor [3]": {"target": "T1, human CB1 receptor", "test": "CB1 Antagonist Effect GPCR Functional Assay (cAMP)", "assay_type": "cell-based", "settings": "for inhibition at 100 µM: read-out: CB1 Antagonist Inhibition", "method": "(§1) In vitro efficacy and CB1 binding specificity of compounds isolated from Morus alba and Milicia excelsa were tested in the human CB1 receptor binding assay, and the agonist or antagonist function of the compounds was determined by measuring the effect on cAMP or agonist-induced cAMP modulation.\nFollowing 10 min incubation at 37° C., the cells are lysed and the fluorescence acceptor (D2-labeled cAMP) and fluorescence donor (anti-cAMP antibody labeled with europium cryptate) are added. After 60 min at room temperature, the fluorescence transfer is measured at λex=337 nm and λem=620 nm and 665 nm using a microplate reader (Rubystar, BMG). The cAMP concentration is determined by dividing the signal measured at 665 nm by that measured at 620 nm (ratio)."}, "human CB1 receptor [4]": {"target": "T1, human CB1 receptor", "test": "CB1 Agonist Effect GPCR Functional Assay (cAMP)", "assay_type": "cell-based", "method": "as §1\nFollowing a 10 minute incubation at 37° C., the cells are lysed and the fluorescence acceptor (D2-labeled cAMP) and fluorescence donor (anti-cAMP antibody labeled with europium cryptate) were added. After 60 min at room temperature, the fluorescence transfer is measured at λex=337 nm and λem=620 nm and 665 nm using a microplate reader (Rubystar, BMG). The cAMP concentration is determined by dividing the signal measured at 665 nm by that measured at 620 nm (ratio)."}, "3T3-L1 adipocytes [5]": {"tested_on": "3T3-L1 adipocytes", "test": "Lipid accumulation in 3T3-L1 adipocytes (Oil-Red O)", "assay_type": "cell-based, Mouse", "settings": "10 ng/ml", "description": "Briefly, 3T3 L1cells (American Type Culture Collection) were cultured in Dulbecco's modified Eagle's medium (DMEM) (GIBCO) containing 10% bovine calf serum until confluent. Two days post-confluence (DO), cells were stimulated to differentiate with DMEM containing 10% fetal bovine serum (FBS), 5 μg/ml insulin, 0.5 mM 3-isobutyl-1-methylxanthine (IBMX) and 1 μM dexamethasone for two days (D2).\nDifferentiated cells were then maintained in 10% FBS/DMEM medium with 5 μg/ml insulin for another two days (D4), followed by culturing with 10% FBS/DMEM medium for four days (D8).\nTo examine lipid accumulation, four different concentrations of Composition 3 (40, 80, 120 and 160 ug/ml) were tested with medium from Days 0 to 8 of adipogenesis. The culture medium was replaced every two days, and the cells were stained with Oil-Red O on Day 8."}, "3T3-L1 cells": {"tested_on": "3T3-L1 cells", "test": "Intracellular triglyceride accumulation in differentiating 3T3-L1 cells", "assay_type": "cell-based, Mouse", "settings": "10 ng/ml; 8 days differentiation", "method": "The cells were washed with PBS, scraped with homogenizing solution, residual cell lysate was centrifuged at 3,000 g for 5 minutes to remove fat layers, and the supernatants were assayed for triglyceride levels."}, "3T3-L1 adipocytes [6]": {"tested_on": "3T3-L1 adipocytes", "test": "Lipolysis (free glycerol released) in mature 3T3-L1 adipocytes", "assay_type": "cell-based, Mouse", "settings": "10 μM", "method": "Isoproterenol (10 μM) was used as a positive control. The conditioned medium was recovered and free glycerol released was assayed by using a lipolysis assay kit (Sigma-Aldrich Inc., USA) following the manufacturer's instructions."}},
  "note": "Like-named read-outs stand apart in the source and are kept apart here.",
  "data": [
    {"compound": "CC(C)=CCc1c(O)ccc(C(=O)C2C(c3c(O)cc(O)c4c(=O)c(CC=C(C)C)c(-c5ccc(O)cc5O)oc34)C=C(C)CC2c2ccc(O)cc2O)c1O", "note": "(centres unmarked) [Albanin G]", "values": [
      {"measurement": "IC50", "setting": "human CB1 receptor [1]", "result": 0.1, "unit": "µM"},
      {"measurement": "inhibition at 20 µg/mL", "setting": "human CB1 receptor [1]; 20 μg/ml", "result": 96, "unit": "%"},
      {"measurement": "CB1 selectivity over CB2", "setting": "human CB1 receptor [1]", "result": "CB1 selective inhibitors"},
      {"measurement": "IC50", "setting": "[2]", "result": 6.6, "unit": "µM"},
      {"measurement": "% Inhibition Rice α-glucosidase", "setting": "Rice α-glucosidase", "result": 66, "unit": "%"},
      {"measurement": "CB1 receptor functional behavior (antagonist)", "setting": "human CB1 receptor [3]", "result": "modest antagonist-like activity"},
      {"measurement": "inhibition at 100 µM", "setting": "human CB1 receptor [3]; at 100 μM", "result": 17, "unit": "%"}
    ]},
    {"compound": "CC(C)=CCC12Oc3c(c(O)cc(O)c3C3C=C(C)CC(c4ccc(O)cc4O)C3C(=O)c3ccc(O)cc3O)C(=O)C1(O)Oc1cc(O)ccc12", "note": "(centres unmarked) [Sanggenon, Sanggenon C/D/]", "values": [
      {"measurement": "IC50", "setting": "human CB1 receptor [1]", "result": 3.5, "unit": "µM"},
      {"measurement": "CB1 selectivity over CB2", "setting": "human CB1 receptor [1]", "result": "CB1 selectivity over the CB2 receptor protein"},
      {"measurement": "inhibition at 20 µg/mL", "setting": "human CB1 receptor [1]", "result": 96, "unit": "%"},
      {"measurement": "IC50", "setting": "[2]", "result": 24, "unit": "µM"},
      {"measurement": "CB1 receptor functional behavior (agonist)", "setting": "human CB1 receptor [4]", "result": "agonist-like behavior instead of antagonist"},
      {"measurement": "EC50", "setting": "human CB1 receptor [4]", "result": 31, "unit": "µM"},
      {"measurement": "inhibition at 100 µM", "setting": "human CB1 receptor [3]", "result": -14, "unit": "%"}
    ]},
    {"compound": "TNF-α", "values": [
      {"measurement": "Inhibition (%) of lipid accumulation", "setting": "3T3-L1 adipocytes [5]; Table 159, Oil-Red O Day 8", "result": 61.0, "unit": "%"},
      {"measurement": "Inhibition (%) of lipid accumulation", "setting": "3T3-L1 adipocytes [5]; Table 160", "result": 68.9, "unit": "%"},
      {"measurement": "Inhibition (%) of lipid accumulation", "setting": "3T3-L1 adipocytes [5]; Table 161", "result": "74.1 ± 6.06", "unit": "%"},
      {"measurement": "Inhibition (%) of intracellular triglyceride accumulation", "setting": "3T3-L1 cells", "result": 19.4, "unit": "%"}
    ]},
    {"compound": "CC(C)NCC(O)c1ccc(O)c(O)c1", "note": "(centres unmarked) [Isoproterenol]", "values": [
      {"measurement": "Lipolysis, % of Control", "setting": "3T3-L1 adipocytes [6]; 24 hrs", "result": "464.2 % of Control"},
      {"measurement": "Lipolysis, % of Control", "setting": "3T3-L1 adipocytes [6]; 48 hrs", "result": "525.0 % of Control"}
    ]},
    {"compound": "CC(C)=CCc1c(-c2ccc(O)cc2O)oc2c(C3C=C(C)CC(c4ccc(O)cc4O)C3C(=O)c3ccc(O)cc3O)c(O)cc(O)c2c1=O", "note": "(centres unmarked) [Kuwanon G]", "values": [
      {"measurement": "IC50", "setting": "human CB1 receptor [1]", "result": 10.1, "unit": "µM"},
      {"measurement": "% Inhibition CB1-Binding", "setting": "human CB1 receptor [1]; 20 μg/ml", "result": 92, "unit": "%"},
      {"measurement": "CB1 selectivity over CB2", "setting": "human CB1 receptor [1]", "result": "CB1 selective inhibitors"},
      {"measurement": "IC50", "setting": "[2]", "result": 28.9, "unit": "µM"},
      {"measurement": "% Inhibition Rice α-glucosidase", "setting": "Rice α-glucosidase", "result": "−22", "unit": "%"},
      {"measurement": "CB1 receptor functional behavior (agonist)", "setting": "human CB1 receptor [4]", "result": "agonist-like behavior instead of antagonist"},
      {"measurement": "EC50", "setting": "human CB1 receptor [4]", "result": 85, "unit": "µM"},
      {"measurement": "CB1 Antagonist Inhibition", "setting": "human CB1 receptor [3]; at 100 μM", "result": "−1", "unit": "%"}
    ]},
    {"compound": "O=C1O[C@H]([C@@H](O)CO)C(O)=C1O", "note": "[Ascorbic acid]", "values": [
      {"measurement": "DPPH Inhibition (%)", "setting": "DPPH anti-oxidation test; 20 μg/ml", "result": "50.8 ± 0.83", "unit": "%"},
      {"measurement": "DPPH Inhibition (%)", "setting": "DPPH anti-oxidation test; 40 μg/ml", "result": "53.6 ± 1.72", "unit": "%"},
      {"measurement": "DPPH Inhibition (%)", "setting": "DPPH anti-oxidation test; 80 μg/ml", "result": "64.2 ± 0.86", "unit": "%"},
      {"measurement": "DPPH Inhibition (%)", "setting": "DPPH anti-oxidation test; 160 μg/ml", "result": "76.6 ± 0.30", "unit": "%"}
    ]}
  ]
}
